We go through 13 molecules from ChEMBL document CHEMBL1145365, “The discovery of long acting beta2-adrenoreceptor agonists” (Bioorg Med Chem Lett, 2007).

A short description of series [1]: Distribution coefficient, log D of the compound. Conditions: octanol/water.
Series [2] concerns the target Beta-2 adrenergic receptor (Homo sapiens, UniProt P07550).
Description: Agonist activity at human recombinant beta-2 adrenoceptor expressed in CHO cells assessed as elevation of cAMP
Series [3] has as its target Beta-2 adrenergic receptor (Cavia porcellus) (UniProt Q8K4Z4). The experiment in a line: Agonist potency at beta-2 adrenoceptor in guinea pig trachea model relative to salmeterol. The format is functional, tissue-based.
A short description of series [4]: Volume of distribution in iv dosed rat. The class given is ADME, organism-based. Particulars: in vivo, read-out: Vdss.
Series [5] can be described thus: Half life in iv dosed rat. The class given is ADME, organism-based. Particulars: in vivo.
For series [6], the target named is Beta-2 adrenergic receptor (Cavia porcellus) (UniProt Q8K4Z4). The series can be described thus: Effect on guinea pig trachea model assessed as duration of muscle tone. The format is functional, tissue-based. Particulars: Muscle tissue.
A short description of series [7]: Clearance in iv dosed rat. Particulars: in vivo. The class given is ADME, organism-based.
Series [8] is described as follows: Half life in human liver microsome at 1 uM. Background: Microsomes from liver hold many membrane-bound enzymes, among them those of drug oxidation.
The nature of series [9]: in vitro. Particulars: human, Caco-2, pH 7.4.
Description: Permeability from apical to basolateral side of the Caco-2 cell membrane at 25 uM in pH 7.4

Beta-2 adrenergic receptor (Cavia porcellus), sequence (Q8K4Z4 whole entry, looked up): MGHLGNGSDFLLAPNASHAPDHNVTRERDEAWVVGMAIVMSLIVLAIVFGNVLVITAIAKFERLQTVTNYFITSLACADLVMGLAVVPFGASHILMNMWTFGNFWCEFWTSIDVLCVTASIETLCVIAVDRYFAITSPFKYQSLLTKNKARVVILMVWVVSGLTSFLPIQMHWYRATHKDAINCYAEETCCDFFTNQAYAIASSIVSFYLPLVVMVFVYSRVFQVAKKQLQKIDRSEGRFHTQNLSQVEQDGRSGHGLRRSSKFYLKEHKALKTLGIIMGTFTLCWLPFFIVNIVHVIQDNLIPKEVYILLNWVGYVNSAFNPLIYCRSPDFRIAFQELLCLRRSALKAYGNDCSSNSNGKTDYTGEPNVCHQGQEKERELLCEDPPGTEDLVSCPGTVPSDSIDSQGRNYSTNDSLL
Beta-2 adrenergic receptor, sequence (P07550 whole entry): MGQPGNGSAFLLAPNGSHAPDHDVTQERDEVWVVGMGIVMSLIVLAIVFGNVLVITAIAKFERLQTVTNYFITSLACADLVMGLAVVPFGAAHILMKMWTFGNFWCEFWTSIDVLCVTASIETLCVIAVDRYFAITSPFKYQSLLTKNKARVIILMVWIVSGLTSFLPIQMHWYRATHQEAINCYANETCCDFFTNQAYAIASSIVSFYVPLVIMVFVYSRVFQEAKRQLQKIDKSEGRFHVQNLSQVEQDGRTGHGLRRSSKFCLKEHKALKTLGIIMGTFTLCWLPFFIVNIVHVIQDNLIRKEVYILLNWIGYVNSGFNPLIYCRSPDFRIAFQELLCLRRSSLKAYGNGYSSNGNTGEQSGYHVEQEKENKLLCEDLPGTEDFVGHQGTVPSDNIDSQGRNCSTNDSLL

`O=C(Cc1cccc(CCNC[C@H](O)c2ccc(O)c(CO)c2)c1)NCc1ccccc1`: the logD in [1] was determined as 0.4. This molecule also gave an EC50 in [2] of 0.096 nM.

For the molecule `C[C@H](Cc1cccc(CC(=O)NCc2ccc(Cl)c(Cl)c2)c1)NC[C@H](O)c1ccc(O)c(CO)c1`, in series [3], the Activity was 0.4. Moreover, the Vd in [4] is 16.6 L/kg. The half-life in [5] was 90 min. Further, the TIME in series [6] came to 9 h. In series [7], this molecule showed a clearance of 7.38 L/h/kg. This molecule registered a logD in series [1] of 2.6. Also, the half-life at 1 µM in series [8] (liver microsomes) came to 4 min. The molecule further had a Papp A→B at 25 µM in [9] of 10 nm/s.

`C[C@H](Cc1cccc(CC(=O)NCc2ccccc2)c1)NC[C@H](O)c1ccc(O)c(CO)c1` displayed a logD in series [1] of 0.8. In addition, a half-maximal effect in series [2] (EC50) was put at 0.096 nM.

In turn, `C[C@H](Cc1cccc(CC(=O)NCc2ccc(OC(F)(F)F)cc2)c1)NC[C@H](O)c1ccc(O)c(CO)c1` displayed an Activity in series [3] of 1. Besides, in series [6], the TIME came to 8.1 h. Further, the logD in series [1] is 2.4. In addition, the half-life at 1 µM in series [8] (liver microsomes) came out at 15 min.

For `COc1cccc(OC)c1CNC(=O)Cc1cccc(C[C@@H](C)NC[C@H](O)c2ccc(O)c(CO)c2)c1`, the Activity in series [3] worked out at 0.3. Moreover, the TIME in series [6] came to 1.5 h. Also, in series [1], the log distribution coefficient (logD) came to 0.8.

Molecule `Cc1ccc(CNC(=O)Cc2cccc(C[C@@H](C)NC[C@H](O)c3ccc(O)c(CO)c3)c2)cc1C` registered an Activity in series [3] of 0.5. Moreover, the TIME in [6] came out at 4.6 h. In series [1], this molecule displayed a logD of 2.2. The molecule also came in with a half-life at 1 µM in series [8] (liver microsomes) of 10 min.

Regarding `C[C@H](Cc1cccc(CC(=O)NCc2cc(Cl)cc(Cl)c2)c1)NC[C@H](O)c1ccc(O)c(CO)c1`, the Activity in [3] was found to be 0.5. Also, the TIME in series [6] was 7.2 h. In addition, the logD in series [1] worked out at 2.3. This molecule also yielded a Papp A→B at 25 µM in series [9] of 10 nm/s.

In [3], `C[C@H](Cc1cccc(CC(=O)NC2Cc3ccccc3C2)c1)NC[C@H](O)c1ccc(O)c(CO)c1` yielded an Activity of 0.1. Moreover, the TIME in [6] was 5.4 h. In series [1], the logD amounted to 1.6. Also, the Papp A→B at 25 µM in [9] was determined as 10 nm/s.

`OCc1cc([C@@H](O)CNCCCCCCOCCCCc2ccccc2)ccc1O` [SALMETEROL]: the Activity in series [3] was 1. In addition, the Vd in series [4] came to 16.6 L/kg. This molecule yielded a logD in series [1] of 2.5.

Turning to `C[C@H](Cc1cccc(CC(=O)NCc2cc(C(F)(F)F)ccc2F)c1)NC[C@H](O)c1ccc(O)c(CO)c1`, the Activity in [3] was found to be 0.9. Also, the TIME in series [6] worked out at 6.6 h. In [8] (microsomes), the half-life at 1 µM turned out to be 9 min.

In turn, `C[C@H](Cc1cccc(CC(=O)NCc2c(F)cccc2Cl)c1)NC[C@H](O)c1ccc(O)c(CO)c1` displayed an Activity in series [3] of 0.07. In addition, the TIME in series [6] amounted to 5.2 h.

As to `C[C@H](Cc1cccc(CC(=O)NCc2cccc3ccccc23)c1)NC[C@H](O)c1ccc(O)c(CO)c1`, the Activity in [3] turned out to be 1. Moreover, the TIME in series [6] is 3.9 h. This molecule showed a logD in [1] of 1.5. In [8] (liver microsomes), this molecule yielded a half-life at 1 µM of 2 min.

For `CC(C)(Cc1cccc(CC(=O)NCc2ccccc2)c1)NC[C@H](O)c1ccc(O)c(CO)c1`, the logD in series [1] worked out at 1. It took 0.02 nM to reach a half-maximal effect in [2] (EC50).

The logD is lipophilicity at a set pH, counting ionised and neutral species. The EC50 is the concentration that produces a half-maximal response. By half-life is commonly meant how long it takes for the measured level to halve. High values mean slow loss, low ones fast loss. A word on the clearance: it is a measure of how efficiently the substance is removed, as volume per time. Higher therefore signals a high capacity for elimination. Usually Papp A→B stands for the apparent permeability from the apical to the basolateral side of a cell layer. A low value points to slow passage.
